The values below are quoted from earlier work in patent publication US12350279B2, “Nasal rinse compositions and methods” (Campbell Holding Company LLC, priority 2022, dated 2025).

Some results are limits rather than exact numbers.

The conditions of series [1]: animal models.
In series [2] the test system is animal models of chronic asthma.
Series [3] relates to allergic asthma animal model.

Consider `C=C(C)[C@@H]1CCC(C)=C[C@H]1c1c(O)cc(CCCCC)cc1O` [CBD, Cannabidiol], for which, in series [1], the “time to absorption after intranasal application” value was ≤ 10 min. In addition, in series [2], the effect on cytokines result is on record as “reduce relevant cytokines”. Further, the “effect on inflammatory and remodeling process, airway hyperreactivity” value in series [3] is “reduced the inflammatory and remodeling process with decreased airway hyperreactivity”.
